Some test systems named below: OVCAR-5; CAKI-1; HOP-92; SF-268; KM12; LOX IMVI; HT-29; BT-549; NCI-H23; M14; PC-3; MDA-MB-231; HCT-116; DU-145; MCF7; COLO 205; Malme-3M; A549; SF-539; NCI-H226.
What all share (assay): NCI anticancer screen, dose series, 48 h

From ChEMBL document CHEMBL1201862, “PubChem BioAssay data set” (2004) come the findings set out here.

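48-hour exposure; five concentrations; linearly interpolated endpoints. GI50 = concentration required for 50% inhibition of growth.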 Calls of active or inactive are those of the source. Rule as the data show it: active = GI50 up to about 1.1 µM and inactive = higher.

For `COc1ccc2c(=O)cc(-c3ccncc3)oc2c1OC`, the GI50 is 24.6 µM (inactive) in the test with OVCAR-5; 36.1 µM (inactive) in the test on CAKI-1; 17.7 µM (inactive) in the test with HOP-92; 21.8 µM (inactive) with SF-268; 26.4 µM (inactive) in the test on KM12; 21 µM (inactive) with LOX IMVI. For the same compound, the GI50 with HT-29 was 28.6 µM (inactive); in the test on BT-549 it was 26 µM (inactive); in the test with NCI-H23 it was 24.6 µM (inactive); in the test on M14, 19.8 µM (inactive); with PC-3, 23.8 µM (inactive); with MDA-MB-231, 31.8 µM (inactive). Further, the GI50 in the test on HCT-116 was 24.2 µM (inactive); in the test with DU-145 it was 24.7 µM (inactive); in the test with MCF7 it was 35.7 µM (inactive); in the test on COLO 205, 15 µM (inactive); in the test with Malme-3M, 30.4 µM (inactive); in the test with A549, 33.1 µM (inactive).
For the compound `O=C(OCC12CC3CC(CC(C3)C1)C2)c1ccc(NCc2cc(O)ccc2O)cc1`, the GI50 with OVCAR-5 was 2.1 µM (inactive); with CAKI-1, 0.466 µM (active); in the test with HOP-92, 3.66 µM (inactive); in the test on SF-268, 3.27 µM (inactive); in the test on KM12 it was 1.24 µM (inactive); in the test on LOX IMVI, 1.72 µM (inactive). The GI50 is 1.47 µM (inactive) in the test on HT-29; 0.331 µM (active) with BT-549; 1.47 µM (inactive) with NCI-H23; 1.96 µM (inactive) with M14; 0.713 µM (active) in the test with PC-3; 4.06 µM (inactive) in the test with MDA-MB-231. Also, the GI50 in the test with SF-539 is 0.544 µM (active); with HCT-116, 2.26 µM (inactive); with NCI-H226, 1.77 µM (inactive); with DU-145, 3.54 µM (inactive); in the test with MCF7, 1.08 µM (active); with COLO 205 it was 0.681 µM (active). Besides, in the test on A549, the GI50 was 2.67 µM (inactive).
As for `CN=C(n1ccnc1)n1ccnc1`, the GI50 with OVCAR-5, in the test with CAKI-1, in the test with SF-268, in the test with KM12, in the test on LOX IMVI and with HT-29 was > 100 µM (inactive) each time. The GI50 in the test on BT-549, in the test on NCI-H23, with M14, with PC-3, in the test on MDA-MB-231 and in the test with SF-539 was > 100 µM (inactive) throughout. Further, the GI50 in the test on HCT-116, in the test with NCI-H226, in the test on DU-145, in the test with MCF7, in the test on COLO 205 and in the test on Malme-3M was > 100 µM (inactive) each time. Besides, in the test on A549, the GI50 is > 100 µM (inactive).
For the compound `O=C(CN1CCN(c2ccccc2)CC1)c1ccc2[nH]c(=O)oc2c1`, the GI50 in the test with OVCAR-5, with CAKI-1, in the test with SF-268, in the test on KM12, in the test with LOX IMVI and with HT-29 was > 100 µM (inactive) in each case. In addition, the GI50 in the test on BT-549 is > 100 µM (inactive); with NCI-H23, > 100 µM (inactive); with M14, > 100 µM (inactive); in the test on PC-3, > 100 µM (inactive); with MDA-MB-231, 83.4 µM (inactive); with SF-539, 36.5 µM (inactive). Further, the GI50 with HCT-116, in the test on NCI-H226, in the test with DU-145, in the test on MCF7, with COLO 205 and in the test with Malme-3M was > 100 µM (inactive) throughout.
`CN1CCN(c2nc3c(c(=O)n(C)c(=O)n3C)n2C)CC1`: the GI50 with OVCAR-5, in the test on CAKI-1, in the test on HOP-92, in the test on SF-268, in the test on KM12 and in the test with LOX IMVI was > 100 µM (inactive) in each case. In addition, the GI50 in the test on HT-29, in the test on BT-549, with NCI-H23, with M14, in the test on PC-3 and with MDA-MB-231 was > 100 µM (inactive) in each case. Also, the GI50 with HCT-116, with NCI-H226, in the test with DU-145, in the test on MCF7, in the test on COLO 205 and in the test on Malme-3M was > 100 µM (inactive) in each case. For the same compound, the GI50 in the test on A549 was > 100 µM (inactive).
For the compound `Cc1cc2[n-][n+]3ncc(-c4ccccc4)n3c2cc1[N+](=O)[O-]`, the GI50 with OVCAR-5, with CAKI-1, in the test on HOP-92, in the test on KM12, with LOX IMVI and with BT-549 was > 100 µM (inactive) each time. The GI50 in the test with PC-3, in the test with MDA-MB-231, with SF-539, in the test with HCT-116, with DU-145 and in the test on MCF7 was > 100 µM (inactive) throughout. Also, the GI50 in the test on COLO 205 and in the test on A549 was > 100 µM (inactive) in each case.
Consider `CC(=O)OCC1OC(Nc2ccc3nc(C)n(-c4ccccc4)c(=O)c3c2)C(OC(C)=O)C(OC(C)=O)C1OC(C)=O` (stereo not given), for which the GI50 was > 50 µM (inactive) with OVCAR-5; > 50 µM (inactive) with CAKI-1; > 50 µM (inactive) in the test on SF-268; > 50 µM (inactive) in the test with KM12; 42.8 µM (inactive) with LOX IMVI; > 50 µM (inactive) in the test on HT-29. Besides, the GI50 with BT-549, in the test on NCI-H23, with PC-3, in the test on MDA-MB-231, with HCT-116 and with NCI-H226 was > 50 µM (inactive) throughout. Also, the GI50 with DU-145, with MCF7, with COLO 205 and in the test on Malme-3M was > 50 µM (inactive) each time.
On to `CCC1CCC2c3c([nH]c4ccccc34)C3C(=O)N(c4ccc(OC)cc4)C(=O)C3C2C1` (stereo not given), for which the GI50 in the test with SF-268 was 52.5 µM (inactive); in the test on KM12, 93.5 µM (inactive); in the test on HT-29, 42.3 µM (inactive); in the test with BT-549, > 100 µM (inactive); in the test on NCI-H23, > 100 µM (inactive); in the test on M14, 63 µM (inactive). Moreover, the GI50 was > 100 µM (inactive) with PC-3; 49.7 µM (inactive) in the test with MDA-MB-231; 34 µM (inactive) with SF-539; 20 µM (inactive) in the test on HCT-116; > 100 µM (inactive) in the test with NCI-H226; > 100 µM (inactive) with DU-145. The GI50 in the test on MCF7 was 36.6 µM (inactive); in the test with COLO 205 it was 74.1 µM (inactive); in the test on A549, 22.2 µM (inactive).
Turning to `O=C(c1c(F)c(F)c(F)c(F)c1F)n1c(=S)n(C(=O)c2c(F)c(F)c(F)c(F)c2F)c2ccccc21`, the GI50 in the test on OVCAR-5 was > 100 µM (inactive); in the test on HOP-92 it was > 100 µM (inactive); in the test with SF-268, 39.9 µM (inactive); in the test on KM12, > 100 µM (inactive); in the test on LOX IMVI it was 35.7 µM (inactive); in the test with HT-29, > 100 µM (inactive). Moreover, the GI50 in the test on BT-549 is > 100 µM (inactive); in the test on M14, > 100 µM (inactive); in the test on PC-3 it was 64 µM (inactive); in the test on MDA-MB-231 it was > 100 µM (inactive); in the test on SF-539, > 100 µM (inactive); in the test on HCT-116, > 100 µM (inactive). The GI50 with DU-145 was 80.5 µM (inactive); in the test on MCF7, 69.8 µM (inactive); in the test with COLO 205 it was 49.9 µM (inactive).
Take `BC(=O)NC(CC(C)C)C(=O)NC1c2ccsc2C(=O)C1O.CN(C)C` (stereo not given): the GI50 with OVCAR-5, in the test on SF-268, in the test with KM12, in the test on LOX IMVI, with HT-29 and in the test on BT-549 was > 100 µM (inactive) each time. The GI50 in the test with NCI-H23, in the test with M14, in the test with PC-3, in the test with MDA-MB-231, with SF-539 and with HCT-116 was > 100 µM (inactive) in each case. The GI50 in the test with NCI-H226, in the test on DU-145, with MCF7, in the test with COLO 205, in the test on Malme-3M and with A549 was > 100 µM (inactive) throughout.
Regarding `C[C@]12CC[C@H](O)C[C@H]1CC[C@@H]1[C@@H]2CC[C@]2(C)[C@@H](C3=CC(=O)OC3)CC[C@]12O` [DIGITOXIGENIN], the GI50 is 0.59 µM (active) in the test with OVCAR-5; 0.0357 µM (active) in the test on CAKI-1; 0.188 µM (active) in the test with HOP-92; 0.0367 µM (active) in the test with SF-268; 0.713 µM (active) in the test with KM12; 0.0547 µM (active) with LOX IMVI. Further, the GI50 is 0.209 µM (active) in the test on HT-29; 0.0372 µM (active) in the test with BT-549; 0.0338 µM (active) in the test with NCI-H23; 0.226 µM (active) in the test on M14; 0.149 µM (active) in the test on PC-3; 0.774 µM (active) with MDA-MB-231. For the same compound, the GI50 in the test with SF-539 is 0.0356 µM (active); in the test on HCT-116 it was 0.0251 µM (active); in the test on NCI-H226, 1.27 µM (inactive); in the test with DU-145, 0.04 µM (active); in the test on COLO 205 it was 0.44 µM (active); in the test on Malme-3M it was 0.0615 µM (active). In addition, the GI50 in the test on A549 is 0.0183 µM (active).
